Source: the supplement of paper PMC6045584
± gives the standard deviation of the averaged measurements.

Experiments:
LENVATINIB = compound: COc1cc2nccc(Oc3ccc(NC(=O)NC4CC4)c(Cl)c3)c2cc1C(N)=O [LENVATINIB]; assay: surviving fraction relative to DMSO-only wells; higher = less growth inhibition; conditions: exposure time: 5 days
Outline: (§1)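 Viability was scored with CellTiter-Glo luminescence and normalised to the median of DMSO-only wells as surviving fraction. Beforehand, log-phase tumour cell lines were seeded at 250–500 cells per well in 384-well plates, allowed 24 hours, and exposed continuously for five days to inhibitors at 0.5, 1, 5, 10, 50, 100, 500 and 1000 nM. Only lines whose three screens gave replicate Pearson r >0.7 and median Z' >0.3 were kept.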

[1] = compound: C[C@@H]1CN(CC(=O)Nc2ccc3c(c2)Cc2cccc(-c4cc(=O)cc(N5CCOCC5)o4)c2S3)C[C@H](C)O1; assay: as above; conditions: exposure time: 5 days
Outline: as §1

Test System | surviving fraction (LENVATINIB; 0.5 nM) | surviving fraction (LENVATINIB; 1 nM) | surviving fraction (LENVATINIB; 5 nM) | surviving fraction (LENVATINIB; 10 nM) | surviving fraction (LENVATINIB; 50 nM) | surviving fraction (LENVATINIB; 100 nM) | surviving fraction (LENVATINIB; 500 nM) | surviving fraction (LENVATINIB; 1000 nM) | surviving fraction ([1]; 0.5 nM) | surviving fraction ([1]; 1 nM) | surviving fraction ([1]; 5 nM) | surviving fraction ([1]; 10 nM) | surviving fraction ([1]; 50 nM) | surviving fraction ([1]; 100 nM) | surviving fraction ([1]; 500 nM) | surviving fraction ([1]; 1000 nM)
H23 LUNG | 1.03 ± 0.054 | 1.05 ± 0.06 | 1.06 ± 0.079 | 1.05 ± 0.08 | 1.05 ± 0.049 | 1.12 ± 0.074 | 1.15 ± 0.068 | 1.17 ± 0.069 | 1.08 ± 0.042 | 1.05 ± 0.021 | 1.11 ± 0.048 | 1.1 ± 0.033 | 1.09 ± 0.083 | 1.17 ± 0.056 | 1.06 ± 0.036 | 1.05 ± 0.045
HCC78 LUNG | 1.08 ± 0.28 | 1.02 ± 0.24 | 0.93 ± 0.32 | 1.04 ± 0.22 | 1.08 ± 0.044 | 1.07 ± 0.22 | 1.02 ± 0.1 | 0.978 ± 0.14 | 1.13 ± 0.16 | 0.941 ± 0.26 | 1.07 ± 0.11 | 1.21 ± 0.21 | 1.15 ± 0.17 | 1.41 ± 0.29 | 1.27 ± 0.39 | 1.29 ± 0.013
HCC202 BREAST | 1.04 ± 0.13 | 0.977 ± 0.21 | 1.1 ± 0.33 | 1.32 ± 0.17 | 0.801 ± 0.56 | 1.15 ± 0.18 | 0.783 ± 0.6 | 0.946 ± 0.25 | 1.01 ± 0.17 | 0.911 ± 0.089 | 0.845 ± 0.24 | 1.11 ± 0.26 | 0.84 ± 0.11 | 0.946 ± 0.25 | 0.845 ± 0.18 | 0.838 ± 0.28
HCC1395 BREAST | 0.937 ± 0.018 | 0.948 ± 0.079 | 0.932 ± 0.05 | 1.03 ± 0.058 | 1 ± 0.11 | 1.03 ± 0.045 | 0.999 ± 0.098 | 0.845 ± 0.075 | 0.955 ± 0.14 | 0.962 ± 0.022 | 0.936 ± 0.062 | 0.936 ± 0.035 | 0.92 ± 0.072 | 0.995 ± 0.08 | 0.919 ± 0.09 | 0.965 ± 0.12
HCC1806 BREAST | 1.02 ± 0.018 | 0.932 ± 0.099 | 1.12 ± 0.13 | 1.13 ± 0.089 | 1.24 ± 0.079 | 1.1 ± 0.13 | 0.961 ± 0.088 | 0.941 ± 0.13 | 1.05 ± 0.14 | 1.07 ± 0.086 | 1.12 ± 0.08 | 1.1 ± 0.035 | 0.959 ± 0.067 | 0.949 ± 0.12 | 0.699 ± 0.065 | 0.477 ± 0.024
HCC1954 BREAST | 0.904 ± 0.058 | 0.817 ± 0.05 | 1.0393 ± 0.00035 | 0.917 ± 0.04 | 0.993 ± 0.058 | 0.988 ± 0.011 | 1.03 ± 0.11 | 1.11 ± 0.067 | 0.9487 ± 0.0025 | 0.93 ± 0.092 | 0.875 ± 0.086 | 1.03 ± 0.11 | 0.742 ± 0.01 | 0.771 ± 0.051 | 0.604 ± 0.09 | 0.504 ± 0.12
HCT15 LARGE INTESTINE | 1.09 ± 0.031 | 1.08 ± 0.039 | 1.08 ± 0.031 | 1.09 ± 0.063 | 1.13 ± 0.052 | 1.17 ± 0.061 | 1.12 ± 0.028 | 1.14 ± 0.021 | 1.05 ± 0.017 | 1.04 ± 0.061 | 1.05 ± 0.05 | 1.05 ± 0.052 | 1 ± 0.066 | 1.01 ± 0.041 | 1.05 ± 0.052 | 1.08 ± 0.017
HELA CERVIX | 1.06 ± 0.088 | 1.04 ± 0.095 | 1.05 ± 0.061 | 1.05 ± 0.071 | 1.17 ± 0.04 | 1.19 ± 0.1 | 1.19 ± 0.1 | 1.17 ± 0.044 | 1.1 ± 0.048 | 1.06 ± 0.049 | 1.115 ± 0.011 | 1.06 ± 0.039 | 1.13 ± 0.03 | 1.11 ± 0.021 | 1.21 ± 0.029 | 1.22 ± 0.072
HOS BONE | 1.03 ± 0.012 | 1.067 ± 0.0047 | 1.03 ± 0.028 | 1.02 ± 0.025 | 1.06 ± 0.071 | 1.05 ± 0.047 | 1.02 ± 0.017 | 0.946 ± 0.0092 | 1.03 ± 0.041 | 1.02 ± 0.032 | 1.06 ± 0.027 | 1.06 ± 0.05 | 1.02 ± 0.039 | 1.01 ± 0.022 | 0.988 ± 0.044 | 0.901 ± 0.048
HOSMNG BONE | 1.02 ± 0.036 | 1.03 ± 0.023 | 0.964 ± 0.06 | 1.02 ± 0.043 | 1.11 ± 0.033 | 1.07 ± 0.036 | 1.09 ± 0.067 | 1.05 ± 0.091 | 1 ± 0.065 | 0.944 ± 0.013 | 0.982 ± 0.051 | 0.978 ± 0.044 | 1.03 ± 0.011 | 0.9887 ± 0.0031 | 1.01 ± 0.043 | 0.998 ± 0.056
